From paper PMC7460240 (Biomedicines, 2020)
In brackets after ≈: the same amount, converted by molar mass. Where a name gives a salt, the structure may show the parent alone.

Legend:
H295R cells [1] = test: Cytotoxicity assay (neutral red, 48 h) on H295R cells; assay type: cell-based, human
Procedure: (§1) Cytotoxicity assays on H295R cells were carried out as previously described. Briefly, H295R cells were grown in 96-well plates to achieve 70% to 80% confluence. […] An amount of 100 µL of medium containing increasing concentrations of dxr was then added. […] After 48 h, cells were incubated 3 h at 37 °C with neutral red (NR) solution following the manufacturer’s protocol. Absorbance was measured in a microplate reader (Multiskan Go Microplate Spectrophotometer from Thermo Fisher Scientific, Illkirch, France).

H295R cells [2] = test: cells; settings: Homo sapiens, NCI-H295R, 168 h, read-out: Dxr-IC50 (proliferation), astemizole 0 µM
Ptch1 [3] = molecular target: T1, Ptch1 (Homo sapiens, UniProt Q13635); test: Screening on the resistance to doxorubicin of yeast expressing human Ptch1 (growth, OD600); assay type: cell-based; parameters: expressed in transfected cells; host or cells: Saccharomyces cerevisiae strain K699; settings: 10 µM compound; for effect on resistance/growth of hPtch1-expressing yeast in the presence of dxr: 10 µM dxr, 18 °C, about 72 h
T1 sequence (Q13635 1-1447): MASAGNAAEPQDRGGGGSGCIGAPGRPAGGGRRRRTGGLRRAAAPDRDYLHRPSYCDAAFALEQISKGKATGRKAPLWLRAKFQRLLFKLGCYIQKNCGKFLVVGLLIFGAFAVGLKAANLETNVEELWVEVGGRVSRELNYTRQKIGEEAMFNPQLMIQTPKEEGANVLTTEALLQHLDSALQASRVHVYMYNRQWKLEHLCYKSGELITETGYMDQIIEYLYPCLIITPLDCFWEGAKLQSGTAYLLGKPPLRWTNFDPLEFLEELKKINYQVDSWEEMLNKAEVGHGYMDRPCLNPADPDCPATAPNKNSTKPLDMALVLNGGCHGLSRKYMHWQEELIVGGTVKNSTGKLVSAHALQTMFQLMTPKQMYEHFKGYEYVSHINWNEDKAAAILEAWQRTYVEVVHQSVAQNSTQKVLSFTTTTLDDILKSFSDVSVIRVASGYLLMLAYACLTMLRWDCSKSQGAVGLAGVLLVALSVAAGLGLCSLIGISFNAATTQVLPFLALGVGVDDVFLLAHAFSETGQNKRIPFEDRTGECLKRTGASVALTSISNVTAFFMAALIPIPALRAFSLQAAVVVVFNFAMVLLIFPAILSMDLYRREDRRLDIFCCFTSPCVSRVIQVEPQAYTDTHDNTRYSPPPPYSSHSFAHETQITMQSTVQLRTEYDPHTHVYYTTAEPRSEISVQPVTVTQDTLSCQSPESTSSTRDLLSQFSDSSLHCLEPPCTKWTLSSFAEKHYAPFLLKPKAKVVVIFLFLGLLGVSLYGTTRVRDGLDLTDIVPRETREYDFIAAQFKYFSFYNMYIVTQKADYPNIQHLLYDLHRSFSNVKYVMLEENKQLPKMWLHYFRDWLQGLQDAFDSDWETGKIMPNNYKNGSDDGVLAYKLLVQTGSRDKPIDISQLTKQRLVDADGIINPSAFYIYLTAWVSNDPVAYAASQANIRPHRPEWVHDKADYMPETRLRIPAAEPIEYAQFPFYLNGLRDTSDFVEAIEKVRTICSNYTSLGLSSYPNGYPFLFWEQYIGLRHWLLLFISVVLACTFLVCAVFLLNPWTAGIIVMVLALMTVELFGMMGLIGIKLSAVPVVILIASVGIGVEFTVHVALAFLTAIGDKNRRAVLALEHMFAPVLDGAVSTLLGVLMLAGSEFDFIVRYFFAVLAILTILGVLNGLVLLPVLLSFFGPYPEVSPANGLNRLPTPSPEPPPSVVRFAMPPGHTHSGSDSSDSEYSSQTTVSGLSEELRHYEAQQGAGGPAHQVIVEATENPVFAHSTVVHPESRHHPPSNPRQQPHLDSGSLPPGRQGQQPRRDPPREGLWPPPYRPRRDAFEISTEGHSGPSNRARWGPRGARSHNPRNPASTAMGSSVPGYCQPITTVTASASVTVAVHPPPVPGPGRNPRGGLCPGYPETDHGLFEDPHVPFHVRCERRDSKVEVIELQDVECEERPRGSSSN
Procedure: The screening of molecules on yeast was carried out as described in [18]. Briefly, S. cerevisiae expressing human Ptch1 were grown at 30 °C up to an OD600 between 1 and 2in minimal medium containing 2% of glucose and amino acid cocktail without leucine, and then diluted in rich medium containing 2% glucose in 96-well plates. An amount of 10 µM of molecules to be tested was added in 8 wells (10 molecules can be tested on one plate) and 10 µM of dxr was added to half of the wells. Plates were incubated at 18 °C on a shaker at 1250 rpm (microtiter plate shaker SSL5 Stuart) and absorbance at 600 nm was recorded for about 72 h.
Figure 1 P136 inhibits doxorubicin efflux activity of hPtch1 when expressed in yeast. (A) P136 inhibits the resistance of hPtch1-expressing yeast to doxorubicin. hPtch1-expressing yeast were grown in the presence of 10 µM of P136, P298 or P375, and in the presence or absence of 10 µM doxorubicin (dxr). DMSO was used as control. The growth of yeast was measured by absorbance at 600 nm. (B) P136 inhibits the efflux of doxorubicin of hPtch1-expressing yeast. hPtch1-expressing yeast and control yeast were incubated with dxr for 2 h and fixed for dxr loading control or resuspended in buffer containing DMSO or 10 μM P136 for 10 min, fixed and deposited on a coverslip for analysis by fluorescence microscopy. The dxr fluorescence of 100 yeast for each condition from 3 independent experiments was quantified using the ImageJ software. […] Significance is attained at p < 0.05 (*) (***: p < 0.0005, ****: p < 0.00005, ns: no significant difference).

hPtch1 = molecular target: T2, hPtch1 (Homo sapiens, UniProt Q13635); test: Doxorubicin efflux measurement in hPtch1-expressing yeast (fluorescence microscopy); assay type: cell-based; settings: 10 µM P136 in efflux buffer, 10 min, 2-deoxy-D-glucose
T2 construct: expressed in transfected cells; host or cells: Saccharomyces cerevisiae strain K699
T2 sequence (Q13635 1-1447): T1 sequence (Q13635 1-1447)
Procedure: Efflux measurements were carried out as described in [19]. On yeast: hPtch1-expressing yeasts or control yeasts were grown to an OD600 of 5, centrifuged, washed with cold water and resuspended in HEPES–NaOH buffer (pH 7.0) containing 5 mM 2-deoxy-D-glucose and 10 µM dxr for 2 h at 4 °C. […] Yeasts were centrifuged, resuspended in 4% PFA and deposited on a coverslip with SlowFade Gold antifade reagent containing DAPI (Invitrogen).
(§2) Images were acquired with a Zeiss Axioplan 2 fluorescence microscope coupled to a digital charge-coupled device camera using a 63X objective for yeast or a 40X /1.3 Plan NeoFluar objective for cells, and filters for Alexa 594 or FITC for dxr or Bo-chol analysis, respectively. Dxr or Bo-chol fluorescence was quantified using the ImageJ software. About 100 yeast/cells (from three wells) were scored per condition.
Figure 1 P136 inhibits doxorubicin efflux activity of hPtch1 when expressed in yeast. […] The growth of yeast was measured by absorbance at 600 nm. (B) P136 inhibits the efflux of doxorubicin of hPtch1-expressing yeast. hPtch1-expressing yeast and control yeast were incubated with dxr for 2 h and fixed for dxr loading control or resuspended in buffer containing DMSO or 10 μM P136 for 10 min, fixed and deposited on a coverslip for analysis by fluorescence microscopy. […]

[4] = Cytotoxicity assay (neutral red, 48 h) on H295R cells; assay type: cell-based, human; settings: human, H295R cells at 80% confluence
Procedure: as §1

H295R cells [5] = test: Synergy analysis of drug combination (Chou-Talalay) on H295R cells; assay type: cell-based, human; settings: 48 h, dxr with 1 µM astemizole
Procedure: Synergy analysis was performed using the Chou-Talalay method for drug combination as described in [21, 22]. […] Normalized isobolograms and Chou-Talalay’s plots (Fa-CI plot were Fa is the fraction affected and CI is the combination index) were created using the Compusyn Software (Version 1.0 downloaded from www.combosyn.com). These allow quantitative determination of drug interactions, where CI < 1 (below the diagonal), =1 (diagonal) and >1 (above the diagonal) indicate synergism, additive effect and antagonism, respectively. Dose-reduction index (DRI) is reported.

caspase 3/7 activity = test: Apoptosis measurement (Caspase-Glo 3/7) in H295R cells; assay type: cell-based, human; settings: 48 h, 0.5 µM astemizole, no dxr
Procedure: Quantification of caspase 3/7 activity was performed using the luminescent assay Caspase-Glo 3/7 (Promega, Charbonnières-les-Bains, France) and a luminometer (Glomax 96 Microplate Luminometer from Promega, Charbonnières-les-Bains, France) following the manufacturer’s protocol.

H295R cells [6] = test: Clone formation of H295R cells (14 days, crystal violet); assay type: cell-based, human; settings: combination of dxr and astemizole
Procedure: After 14 days, clones were stained with crystal violet and pictures were taken. Cells were then solubilized and absorbance was measured in a microplate reader at 550 nm (Multiskan Go Microplate Spectrophotometer, Thermo Scientific, Illkirch, France).

H295R cells [7] = test: Spheroid formation in 3D culture of H295R cells; assay type: cell-based, human; settings: 14 days
Procedure: H295R cells were cultured in DMEM/F-12, 2% NuSerum, 1% ITS Plus and penicillin/streptomycin supplemented with 20 µg/µL EGF and 20 µg/µL FGF. […] After 14 days, images of each well were taken using a cell imaging multi-mode reader (Cytation 5 from Bio Tek, Colmar, France). Then, 100 µL of the medium was removed from each well and 100 µL of Cell Titer Glow 3D reagent (Promega) was added. Spheroids were disrupted according to the protocol from the Cell Titer Glow 3D Viability Assay (Promega) and viability was measured in a microplate reader at 550 nm (Multiskan Go Microplate Spectrophotometer, Thermo Scientific).

[8] = Distribution coefficient octanol/PBS pH 7.4; assay type: physicochemical; settings: read-out: LogD7.4
[9] = Solubility in aqueous buffer (PBS, pH 7.4); assay type: physicochemical
[10] = Metabolic stability in rat liver microsomes; assay type: in vitro ADME; settings: NADPH, read-out: RLM T1/2
Procedure: (§3) Profiling and PK studies were performed by GalenAuxi Co (Oxford, UK) as previously described. […] Plasma samples (50 μL) were collected via the facial vein at 3, 10, 30, 60, 120, 240, 360 and 1440 min post-dose for the IV group, and at 10, 30, 60, 120, 240, 360, 480 and 1440 min post-dose for the PO group in K2EDTA-coated tubes, mixed gently and centrifuged at 2500 g for 15 min at 4 °C within 1 h after collection. For control animals, blood was collected by cardiac puncture. Plasma samples were prepared in acetonitrile for LC-MS/MS analysis. Peak areas were recorded and the concentrations of the test compound in the unknown plasma samples were determined using the respective calibration curve.
(§4) We determined its lipophilicity described by the distribution constant LogD, its solubility, which is an important parameter since water is the solvent of choice for the liquid pharmaceutical formulation, its metabolic stability measured in the presence of rat and human microsomes and NADPH, and its ability to bind to proteins.

[11] = Metabolic stability in human liver microsomes; assay type: in vitro ADME; settings: NADPH, read-out: HLM T1/2
Procedure: as §3, §4

[12] = Human plasma protein binding; assay type: in vitro ADME; settings: read-out: Ppb
MeWo cells [13] = test: Doxorubicin efflux in MeWo melanoma cells; assay type: cell-based, human; settings: 30 µM astemizole, 30 min
HaCaT keratinocytes = test: Cell viability of HaCaT keratinocytes (48 h); assay type: cell-based, human; settings: 10 µM astemizole
H295R cells [14] = tested on: H295R cells
Ptch1 [15] = molecular target: T1, Ptch1; test: Doxorubicin efflux measurement in H295R cells; assay type: cell-based; parameters: endogenous in cells; host or cells: H295R; settings: H295R cells loaded with 10 µM dxr 2 h, then 30 min efflux buffer with 10 µM astemizole
Procedure: (§5) After 2 h, some coverslips were immediately fixed with PFA and mounted in SlowFade Gold antifade reagent containing DAPI (Invitrogen) for loading control.
as §2
(§6) After 2 h, 3 coverslips were fixed for dxr or Bo-chol loading control. […] Images were acquired using fluorescence microscopy and a 40x objective. Fluorescence was quantified using the Image J software for 100 cells per condition.

Ptch1 [16] = molecular target: T1, Ptch1; test: BODIPY-cholesterol efflux measurement in H295R cells; assay type: cell-based; parameters: endogenous in cells; host or cells: H295R; settings: H295R cells loaded with BODIPY-cholesterol 2 h, then 30 min efflux buffer with 10 µM astemizole
Procedure: as §5, §2, §6

[17] = Cell viability of MeWo melanoma cells (48 h); settings: human, MeWo melanoma cells
Procedure: (§7) Cell viability was measured after 48 hours
(§8) doxorubicin (dxr) 2 μM. The graphs reported are representative of more than 3 independent
(§9) Cell viability was measured after 48 hours treatment
(§10) the mean ± SEM values of 3 independent experiments. Significance, calculated using ANOVA
(§11) multiple comparison test and Bonferroni correction, was attained at p < 0.05 (*) (***: p < 0.0005).

MeWo cells [18] = test: Cell viability of MeWo melanoma cells (48 h); settings: MeWo cells, 48 h, serial dilutions of astemizole with 2 µM dxr
Procedure: as §7, §8, §9, §10, §11

## COc1cccc2c1C(=O)c1c(O)c3c(c(O)c1C2=O)C[C@@](O)(C(=O)CO)C[C@@H]3O[C@H]1C[C@H](N)[C@H](O)[C@H](C)O1 [Dxr, Doxorubicin hydrochloride]
H295R cells [1]; Homo sapiens, NCI-H295R, read-out: Dxr-IC50 Without Astemizole, H295R cells, neutral red, mean ± SEM of 3 experiments
  IC50: 17.3 ± 3.6 µM
H295R cells [2]
  IC50: 0.1 ± 0.02 µM

## CSc1ccc2c(c1)C(N1CCN(C)CC1)Cc1ccccc1S2 (stereo not drawn) [P375, methiothepin maleate]
Ptch1 [3]
  effect on resistance/growth of hPtch1-expressing yeast in the presence of dxr: significantly inhibited the resistance of hPtch1-expressing yeast to dxr

## COc1ccc(CCN2CCC(Nc3nc4ccccc4n3Cc3ccc(F)cc3)CC2)cc1 [astemizole, Astemizole]
hPtch1
  effect on amount of dxr in hPtch1-expressing yeast (dxr efflux): increases the amount of dxr in hPtch1-expressing yeast significantly more than in control yeast
[4]
  IC50 at 48 h: ~7 µM
H295R cells [1]; H295R cells, 1 µM astemizole, dxr + 10 µM etoposide + 10 µM mitotane
  increase of the efficacy of dxr combined with etoposide and mitotane (EDM) by astemizole: about eight times
H295R cells [1]; H295R cells, 1 µM astemizole, dxr alone
  increase of the cytotoxicity of dxr by astemizole: about 10 times
H295R cells [1]; H295R cells, 1 µM astemizole, no dxr
  toxicity of astemizole by itself to ACC cells: not toxic to ACC cells by itself
H295R cells [5]
  cooperativity indices (CI), dxr and astemizole: below 1
Caspase 3/7 activity
  effect of astemizole by itself on caspase 3/7 activity: does not affect caspase 3/7 activity by itself
H295R cells [6]
  increase of the anti-clonogenic activity of dxr: increased four times
H295R cells [7]
  spheroid size with combination dxr + astemizole: significantly smaller
[8]
  logD: 3.5
[9]
  solubility: 22.1 µM (≈ 10.1 µg/mL)
[10]
  half-life: 31 min
[11]
  half-life: > 60 min
[12]
  fraction unbound: 0.01
MeWo cells [13]
  effect on dxr efflux from melanoma cells: inhibits dxr efflux from melanoma cells
HaCaT keratinocytes
  effect on keratinocyte viability: very slight effect on keratinocyte viability
H295R cells [14]; 7 days, 0.5 µM astemizole, no dxr
  effect of astemizole by itself on cell viability: does not affect cell viability by itself
H295R cells [14]; serial dilution of astemizole for 7 days
  effect of astemizole alone on proliferation: inhibited their proliferation
Ptch1 [15]
  dxr kept inside the cells: about 73%
Ptch1 [16]
  Bo-chol kept inside the cells: about 95%
[17]
  IC50 at 48 h: ~7 µM
MeWo cells [18]
  effect on dxr cytotoxicity in melanoma cells: increases dxr cytotoxicity
Ptch1 [3]
  effect on resistance/growth of hPtch1-expressing yeast in the presence of dxr: able to inhibit the growth of hPtch1-expressing yeast in the presence of dxr
Ptch1 [3]; no dxr
  effect on growth of hPtch1-expressing yeast in the absence of dxr: without effects on the growth of hPtch1-expressing yeast in the absence of dxr
